From patent publication US9513288B2, “Isoform-selective inhibitors and activators of PDE3 cyclic nucleotide phosphodiesterases” (The United States of America, as represented by the …, priority 2001, dated 2016)
Like-named read-outs stand apart in the source and are kept apart here.

What was measured:
PDE3A1 [1] = assay: cAMP-hydrolytic activity of FLAG-tagged PDE3A1 in transfected HEK293 cells; assay type: cell-based, human; conditions: 1 mM dBcAMP 1 hour; for cAMP-hydrolytic activity of PDE3A1: 1 μM isoproterenol 90 sec, 50 μM 8-pCPT-2′-O-Me-cAMP or 0.1 mM sodium butyrate 1 hour
Method: FIG. 3 Illustrates an illustrative effect of d8-pCPT-2′-O-Me-cAMP and sodium butyrate on PDE3A1 activity, wherein HEK293 cells were transfected with FLAG-tagged PDE3A and treated with 50 μM d8-pCPT-2′-O-Me-cAMP, 0.1 mM sodium butyrate or 1 mM dBcAMP for 1 hour. PDE3A activity was assayed as described;
(§1) FIGS. 9A-9B illustrate stimulation of PDE3A2 and PDE3A1 activity in response to PKC and PKA activation. (A) HEK293 cells were transfected with FLAG-tagged PDE3A2, with and without alanine substitution at S428, and treated with 10 ng/ml PMA for 15 min or 1 mM dBcAMP for 1 hour. (B) HEK293 cells were transfected with FLAG-tagged PDE3A1, with and without alanine substitutions at S312 and S428, and treated with 1 μM isoproterenol for 90 sec, 10 ng/ml PMA for 15 min or 1 mM dBcAMP for 1 hour. PDE3 activity was assayed as described. PDE3A constructs were immunoprecipitated with anti-FLAG antibody, and phosphorylation was analyzed by immunoblotting with anti-FLAG and phosphospecific antibodies as indicated; and
(§2) PKA and PKC modulate the catalytic activity of PDE3A and PDE3A2 through distinct molecular mechanisms: In view of the reported effects of PKA and PKC on PDE3A activity^3-6, we examined the effects of phosphorylation at S312 and S428 on the cAMP-hydrolytic activity of PDE3A isoforms in transfected HEK293 cells. […] This stimulation was not observed when cells were treated with either the EPAC activator 8-pCPT-2′-O-Me-cAMP or with sodium butyrate (FIG. 3). […] To determine whether similar consequences of phosphorylation occur in the case of PDE3A isoforms, protein extracts from transfected HEK293 cells, untreated or exposed to either isoproterenol or PMA, were analyzed by gel-filtration chromatography, measurement of catalytic activity and Western blotting. Under basal conditions, PDE3 activity and protein was recovered in a biphasic pattern in low- and high-molecular-weight peaks (FIG. 5).
(§3) Measurement of cAMP-hydrolytic activity: cAMP-hydrolytic activity was quantified at 30° C. by the two-step snake-venom method with [^3H]cAMP (1 μM) as substrate; PDE3 activity was quantified by measuring activity in the absence and presence of cilostamide. The amount of protein used per assay and the incubation times were adjusted to ensure that no more than 20% of the total cyclic nucleotide was hydrolyzed during the assay.
(§4) Treatment of cells with pharmacologic agents: HEK293 cells expressing the human PDE3A constructs were incubated at 37° C. in serum-free medium containing isoproterenol for 90 sec or PMA for 15 min. At the end of the incubation period, cells were solubilized in lysis buffer containing 20 mM MOPS pH 7.2, 15 mM MgCl2, 0.5% NP40, 150 mM NaCl, 5 mM EDTA, protease inhibitor cocktail and phosphatase inhibitor cocktail 3. Cellular debris was removed by centrifugation (1,000×g; 5 min), and cleared supernatants were used in the experiments.

PDE3A1 [2] = assay: Phosphorylation and 14-3-3 binding of FLAG-tagged PDE3A1 in transfected HEK293 cells; assay type: cell-based, human; conditions: PMA 10 ng/ml 15 min; for phosphorylation of PDE3A1 at S428 / phosphorylation of PDE3A1 at S312: dibutyryl cAMP 1 mM 1 hour, phosphospecific antibodies; for binding of PDE3A1 to endogenous 14-3-3 (co-immunoprecipitation) / phosphorylation of PDE3A1 at S312: isoproterenol 90 sec
Method: (§5) FIGS. 8A-8C Illustrate phosphorylation of PDE3A1 and PDE3A2 in response to PKA and PKC activation. HEK293 cells were transfected with FLAG-tagged PDE3A2 and PDE3A1. (A) Prior to lysis and immunoprecipitation with anti-FLAG antibodies, cells were treated with 1 µM isoproterenol for 90 sec or 10 ng/ml PMA for 15 min. (B) The experiment was carried out in cells incubated in the absence and presence of 100 μM IBMX before treatment with 1 µM isoproterenol for 90 sec. (C) FLAG-tagged PDE3A2 and PDE3A1, affinity-purified from transfected cells using anti-FLAG antibodies, were incubated in the absence or presence of 10 or 100 nM PKA and 200 μM ATP for 20 min at 30° C. Phosphorylation was analyzed by Western blotting with phosphospecific antibodies as indicated.
(§6) Furthermore, when affinity-purified FLAG-tagged PDE3A and PDE3A2 were phosphorylated in vitro by PKA, PDE3A2 was phosphorylated more robustly than PDE3A1 at both S312 and S428 (for both isoforms, S312 was phosphorylated more robustly than S428) […].
(§7) Activation of PKC by PMA in transfected HEK293 cells results in selective phosphorylation of PDE3A2 at S428: We compared the effects of PKC activation by PMA on the phosphorylation of FLAG-tagged PDE3A1 and PDE3A2 in transfected HEK293 cells.
(§8) Illustrative immunoprecipitation and immunoblotting: Endogenous or recombinant human PDE3A, its fragments or mutants, endogenous 14-3-3 or GST-14-3-3 proteins were immunoprecipitated by incubation overnight at 4° C. with anti-FLAG(M2)-coupled agarose beads or glutathione sepharose beads. Beads were centrifuged (5,000×g, 1 min) and washed four times with 1 ml buffer containing 20 mM MOPS pH 7.2, 15 mM MgCl2, 0.5% NP40 and 150 mM NaCl. Proteins were subjected to SDS-PAGE (8% polyacrylamide) and electrophoretic transfer to nitrocellulose membranes. Membranes were blocked using 5% nonfat milk in Tris-buffered saline (50 mM Tris pH 7.5, 150 mM NaCl, 0.1% Tween-20) for 1 h at room temperature and incubated with primary and HRP-conjugated secondary antibodies prepared in 5% (w/v) bovine serum albumin. Protein bands were visualized using an enhanced chemiluminescence detection system.
as §4

PDE3A2 [3] = assay: Gel-filtration chromatography and two-dimensional analysis of proteins co-immunoprecipitated with PDE3A2 from transfected HEK293 cells; assay type: cell-based, human; conditions: 10 ng/ml PMA 15 min; isoelectric focusing and SDS-PAGE
Method: (§9) FIGS. 5A-5B Illustrate two-dimensional analysis of HEK293 cell proteins co-immunoprecipitated with PDE3A, wherein FLAG-tagged PDE3A1- and PDE3A2-transfected HEK293 cells were treated with 1 μM isoproterenol for 90 sec or 10 ng/ml PMA for 15 min, respectively; untransfected, untreated cells served as controls. PDE3A1 and PDE3A2 were immunoprecipitated with anti-FLAG antibody. PDE3A isoforms and co-immunoprecipitated proteins were eluted with 250 μg/ml of 3×FLAG peptide and submitted to isoelectric focusing followed by SDS-PAGE. Proteins were visualized by silver staining, and spots were quantified and analyzed for inter-gel comparison using PDquest 8.1 software. Experiments were carried out in triplicate, such that (A) Images from one experiment are shown. […]
(§10) PKA and PKC modulate the catalytic activity of PDE3A and PDE3A2 through distinct molecular mechanisms: In view of the reported effects of PKA and PKC on PDE3A activity^3-6, we examined the effects of phosphorylation at S312 and S428 on the cAMP-hydrolytic activity of PDE3A isoforms in transfected HEK293 cells. […] To determine whether similar consequences of phosphorylation occur in the case of PDE3A isoforms, protein extracts from transfected HEK293 cells, untreated or exposed to either isoproterenol or PMA, were analyzed by gel-filtration chromatography, measurement of catalytic activity and Western blotting. […]

PDE3A2 [4] = assay: Phosphorylation and 14-3-3 binding of FLAG-tagged PDE3A2 in transfected HEK293 cells; assay type: cell-based, human; conditions: for phosphorylation of PDE3A2 at S312 / phosphorylation of PDE3A2 at S428: isoproterenol 90 sec, dibutyryl cAMP 1 mM 1 hour, phosphospecific antibodies
Method: as §5, §6, §7, §8, §4

PDE3A2 [5] = assay: cAMP-hydrolytic activity of FLAG-tagged PDE3A2 in transfected HEK293 cells; assay type: cell-based, human; conditions: 10 ng/ml PMA 15 min, 1 mM dBcAMP 1 hour; for cAMP-hydrolytic activity of PDE3A2: isoproterenol
Method: as §1, §2, §3, §4

[6] = treatment of dilated cardiomyopathy; cited from earlier work
PDE3 = assay: cAMP-hydrolytic activity in cytosolic and microsomal fractions of human myocardium; assay type: biochemical
PDE3A1 [7] = assay: Gel-filtration chromatography and two-dimensional analysis of proteins co-immunoprecipitated with PDE3A1 from transfected HEK293 cells; assay type: cell-based, human; conditions: 1 μM isoproterenol 90 sec
Method: as §9, §10

3T3 adipocytes = assay: Association of PKB with PDE3B in microsomal fractions of 3T3 adipocytes; assay type: cell-based; conditions: not shown
From the text: The interactions of PKB with PDE3B were examined. Microsomal fractions of 3T3 adipocytes (which express PDE3B) were solubilized with NP-40 and fractionated by gel filtration. […] An association between PKB and PDE3B was confirmed by the ability of anti-PDE3B antibodies to co-immunoprecipitate the two proteins in the PDE3B peak (not shown).

CO[C@@H]1[C@@H]2OP(=O)(O)OC[C@H]2O[C@H]1n1c(Sc2ccc(Cl)cc2)nc2c(N)ncnc21 [8-pCPT-2′-O-Me-cAMP]
cAMP-hydrolytic activity of PDE3A1 (PDE3A1 [1]): not observed

CCCCCCCCCCCCCC(=O)O[C@@H]1[C@@H](C)[C@@]2(O)[C@@H](C=C(CO)C[C@]3(O)C(=O)C(C)=C[C@@H]23)[C@@H]2C(C)(C)[C@]12OC(C)=O [PMA]
phosphorylation of PDE3A1 at S428 (PDE3A1 [2]): little increase in phosphorylation at S428
binding of PDE3A1 to endogenous 14-3-3 (co-immunoprecipitation) (PDE3A1 [2]): little increase in binding to endogenous 14-3-3
phosphorylation of PDE3A1 at S312 (PDE3A1 [2]): no increase in phosphorylation of S312
number of proteins co-immunoprecipitated with PDE3A2 (PDE3A2 [3]): increased the number of proteins that co-immunoprecipitated with PDE3A2
binding of PDE3A2 to endogenous 14-3-3 (co-immunoprecipitation) (PDE3A2 [4]; PMA 10 ng/ml 15 min): increased binding to endogenous 14-3-3
phosphorylation of PDE3A2 at S312 (PDE3A2 [4]; PMA 10 ng/ml 15 min): no increase in phosphorylation at S312
phosphorylation of PDE3A2 at S428 (PDE3A2 [4]; PMA 10 ng/ml 15 min): marked increase in phosphorylation at S428
stimulation of cAMP-hydrolytic activity of PDE3A2 with S428A substitution (PDE3A2 [5]): blocked
cAMP-hydrolytic activity of PDE3A2 (PDE3A2 [5]): increase in cAMP-hydrolysis

Nc1cc(-c2ccncc2)c[nH]c1=O [amrinone]
initial hemodynamic responses [6]: favorable hemodynamic responses

O=C1CCc2cc(OCCCCc3nnnn3C3CCCCC3)ccc2N1 [cilostazol]
effects on cAMP-hydrolytic activity (PDE3; cytosolic versus microsomal fractions of human myocardium): more potent effects in microsomal fractions

CCCC(=O)Nc1ncnc2c1ncn2[C@@H]1O[C@@H]2COP(=O)(O)O[C@H]2[C@H]1OC(=O)CCC [dibutyryl cAMP]
phosphorylation of PDE3A1 at S428 (PDE3A1 [2]): significant increase in the phosphorylation of PDE3A at both S312 and S428
phosphorylation of PDE3A1 at S312 (PDE3A1 [2]): significant increase in the phosphorylation of PDE3A at both S312 and S428
phosphorylation of PDE3A2 at S312 (PDE3A2 [4]; PMA 10 ng/ml 15 min): phosphorylation at both S312 and S428
phosphorylation of PDE3A2 at S428 (PDE3A2 [4]; PMA 10 ng/ml 15 min): phosphorylation at both S312 and S428
cAMP-hydrolytic activity of PDE3A1 (PDE3A1 [1]): stimulation of cAMP-hydrolytic activity
cAMP-hydrolytic activity of PDE3A1 construct with S312A and S428A substitutions (PDE3A1 [1]): same stimulation of catalytic activity
stimulation of cAMP-hydrolytic activity of PDE3A2 with S428A substitution (PDE3A2 [5]): similarly blocked by the S428A mutation

CC(C)NCC(O)c1ccc(O)c(O)c1 (centres unmarked) [isoproterenol]
binding of PDE3A1 to endogenous 14-3-3 (co-immunoprecipitation) (PDE3A1 [2]): co-immunoprecipitation of endogenous 14-3-3
phosphorylation of PDE3A1 at S312 (PDE3A1 [2]): phosphorylation of PDE3A1 at S312
phosphorylation of PDE3A2 at S312 in the presence of IBMX (PDE3A2 [4]; 100 μM IBMX before isoproterenol for 90 sec): readily phosphorylated at S312
phosphorylation of PDE3A2 at S312 (PDE3A2 [4]; PMA 10 ng/ml 15 min): little phosphorylation of PDE3A2
phosphorylation of PDE3A2 at S428 (PDE3A2 [4]; PMA 10 ng/ml 15 min): little phosphorylation of PDE3A2
cAMP-hydrolytic activity of PDE3A1 (PDE3A1 [1]): did not stimulate cAMP-hydrolytic activity
cAMP-hydrolytic activity of PDE3A2 (PDE3A2 [5]): no stimulation of either isoform
elution of PDE3 activity and protein on Superose 6 gel filtration, PDE3A1-transfected cells (PDE3A1 [7]): pronounced shift of activity and protein from low- to high-molecular-weight peaks
number of proteins co-immunoprecipitated with PDE3A1 (PDE3A1 [7]; isoelectric focusing and SDS-PAGE): increased the number of proteins that co-immunoprecipitated with PDE3A1

Cc1[nH]c(=O)c(C#N)cc1-c1ccncc1 [milrinone]
effects on cAMP-hydrolytic activity (PDE3): more potent effects in microsomal fractions

CCCC(=O)[O-].[Na+] [sodium butyrate]
cAMP-hydrolytic activity of PDE3A1 (PDE3A1 [1]): not observed

insulin: insulin, used to treat 3T3 adipocytes
percentage of PKB co-purifying with PDE3B (3T3 adipocytes; gel filtration): appeared to increase the percentage of PKB co-purifying with PDE3B
phosphorylation of PKB (3T3 adipocytes): increased the phosphorylation of PKB
